Data reported in the supplement of paper PMC10307832.

Legend:
Test in all cases: relative viability (nuclei count vs DMSO), 5 days (fraction); higher = more cells survive
[1] = compound: Cn1cc(-c2cnn3c(N)c(Br)c([C@@H]4CCCNC4)nc23)cn1 + CCNC(=O)c1noc(-c2cc(C(C)C)c(O)cc2O)c1-c1ccc(CN2CCOCC2)cc1 [Luminespib] (partner 0.01 µM)
How it was run: (§1)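 Lung cancer cell lines in 1536-well plates were dosed by pin tool the day after seeding, either with one drug alone or with a fixed anchor-drug dose plus five library-drug doses (not always all listed) in √10 steps. After 5 days, cells were fixed and their nuclei stained in one step (final 0.05% Triton X-100, 1% formaldehyde, 1 ug/ml Hoechst), then counted on 4× images. Relative viability is the nuclei count in treated wells divided by that in vehicle wells. Values are medians of duplicate plates.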

[2] = compound: Cn1cc(-c2cnn3c(N)c(Br)c([C@@H]4CCCNC4)nc23)cn1 + CC(=O)c1c(C)c2cnc(Nc3ccc(N4CCNCC4)cn3)nc2n(C2CCCC2)c1=O [Palbociclib] (partner 0.5 µM)
How it was run: as §1

[3] = compound: Cn1cc(-c2cnn3c(N)c(Br)c([C@@H]4CCCNC4)nc23)cn1 + CS(=O)(=O)N1CCN(Cc2cc3nc(-c4cccc5[nH]ncc45)nc(N4CCOCC4)c3s2)CC1 [Pictilisib] (partner 1 µM)
How it was run: as §1

[4] = compound: Cn1cc(-c2cnn3c(N)c(Br)c([C@@H]4CCCNC4)nc23)cn1 + COc1cccc2cc(-c3nc([C@H]4CC[C@H](C(=O)O)CC4)n4ncnc(N)c34)[nH]c12 [OSI-027] (partner 0.5 µM)
How it was run: as §1

| Cell Line | relative viability ([1]; first compound 0.05 µM) | relative viability ([1]; first compound 0.1581 µM) | relative viability ([1]; first compound 0.5 µM) | relative viability ([1]; first compound 5 µM) | relative viability ([2]; first compound 0.05 µM) | relative viability ([2]; first compound 0.1581 µM) | relative viability ([2]; first compound 0.5 µM) | relative viability ([2]; first compound 1.581 µM) | relative viability ([2]; first compound 5 µM) | relative viability ([3]; first compound 0.05 µM) | relative viability ([3]; first compound 0.1581 µM) | relative viability ([3]; first compound 0.5 µM) | relative viability ([3]; first compound 1.581 µM) | relative viability ([3]; first compound 5 µM) | relative viability ([4]; first compound 0.05 µM) | relative viability ([4]; first compound 0.1581 µM) | relative viability ([4]; first compound 0.5 µM) | relative viability ([4]; first compound 1.581 µM) | relative viability ([4]; first compound 5 µM) | relative viability ([1]; first compound 1.581 µM) |
| --- | --- | --- | --- | --- | --- | --- | --- | --- | --- | --- | --- | --- | --- | --- | --- | --- | --- | --- | --- | --- |
| LK-2 | 0.213 | 0.206 | 0.182 | 0.169 | 0.703 | 0.658 | 0.678 | 0.542 | 0.431 | 0.597 | 0.508 | 0.574 | 0.444 | 0.306 | 0.146 | 0.162 | 0.172 | 0.179 | 0.168 |  |
| NCI-H661 | 0.953 | 0.953 | 0.991 | 0.729 | 0.395 | 0.371 | 0.387 | 0.389 | 0.344 | 0.321 | 0.432 | 0.441 | 0.291 | 0.357 | 0.711 | 0.789 | 0.718 | 0.513 | 0.511 | 0.829 |
| HCC-366 |  |  |  |  | 0.399 | 0.463 | 0.359 | 0.267 | 0.3 | 0.278 | 0.17 | 0.156 | 0.205 | 0.263 | 1.03 | 1.19 | 0.945 | 0.959 | 0.952 |  |
| HOP-62 | 0.872 | 0.915 | 0.933 | 0.739 | 0.438 | 0.5 | 0.485 | 0.417 | 0.334 | 0.896 | 0.699 | 0.586 | 0.444 | 0.455 | 0.831 | 1.08 | 0.825 | 0.555 | 0.562 | 0.829 |
| NCI-H1944 | 0.705 | 0.671 | 0.706 | 0.344 | 0.31 | 0.343 | 0.282 | 0.261 | 0.261 | 0.341 | 0.358 | 0.346 | 0.32 | 0.302 | 0.427 | 0.454 | 0.39 | 0.349 | 0.278 | 0.635 |
| SW 1573 | 0.211 | 0.288 | 0.21 | 0.146 | 0.482 | 0.447 | 0.333 | 0.264 | 0.301 | 0.48 | 0.572 | 0.502 | 0.461 | 0.499 | 0.547 | 0.745 | 0.606 | 0.505 | 0.465 | 0.185 |
| LU99A | 0.31 | 0.202 | 0.248 | 0.223 | 0.421 | 0.458 | 0.386 | 0.392 | 0.339 | 0.308 | 0.296 | 0.29 | 0.277 | 0.225 | 0.285 | 0.309 | 0.242 | 0.261 | 0.207 | 0.162 |
| NCI-H647 | 0.232 | 0.262 | 0.127 | 0.104 | 0.378 | 0.47 | 0.423 | 0.228 | 0.107 | 0.485 | 0.409 | 0.368 | 0.291 | 0.341 | 0.66 | 0.718 | 0.612 | 0.588 | 0.479 | 0.106 |
| A-427 | 1.36 | 0.923 | 0.889 | 0.403 | 0.51 | 0.503 | 0.508 | 0.504 | 0.411 | 0.675 | 0.661 | 0.819 | 0.643 | 0.509 | 0.495 | 0.474 | 0.453 | 0.357 | 0.31 | 0.571 |
| COR-L 105 | 0.712 | 0.754 | 0.696 | 0.484 | 0.411 | 0.367 | 0.385 | 0.41 | 0.386 | 0.459 | 0.4 | 0.376 | 0.376 | 0.385 | 0.632 | 0.818 | 0.688 | 0.587 | 0.487 | 0.581 |
| NCI-H441 | 0.373 | 0.348 | 0.31 | 0.302 | 0.191 | 0.189 | 0.199 | 0.172 | 0.193 | 0.669 | 0.56 | 0.478 | 0.527 | 0.46 | 0.614 | 0.814 | 0.821 | 0.565 | 0.609 | 0.254 |
| NCI-H2126 | 0.755 | 0.964 | 0.983 | 0.595 | 0.338 | 0.332 | 0.363 | 0.347 | 0.408 | 0.462 | 0.519 | 0.512 | 0.52 | 0.524 | 0.715 | 0.744 | 0.74 | 0.673 | 0.672 | 0.608 |
| EBC-1 |  |  |  |  |  |  |  |  |  | 0.466 | 0.36 | 0.37 | 0.265 | 0.221 |  |  |  |  |  |  |
| NCI-H1648 |  |  |  |  | 0.208 | 0.281 | 0.254 | 0.305 | 0.259 |  |  |  |  |  | 0.249 | 0.235 |  | 0.258 | 0.261 |  |
| SW 900 | 0.184 | 0.176 | 0.188 | 0.165 | 0.53 | 0.527 | 0.535 | 0.444 | 0.529 |  |  |  |  |  | 0.597 | 0.612 | 0.541 | 0.453 | 0.26 | 0.189 |
| NCI-H596 | 0.992 | 0.971 | 0.965 | 0.716 |  |  |  |  |  | 0.386 | 0.401 | 0.427 | 0.362 | 0.413 | 0.833 | 0.87 | 0.643 | 0.654 | 0.719 | 0.894 |
| NCI-H1563 | 0.62 | 0.578 | 0.51 | 0.37 |  |  |  |  |  | 0.581 | 0.63 | 0.658 | 0.585 | 0.595 | 0.737 | 0.779 | 0.691 | 0.711 | 0.703 | 0.55 |
| NCI-H1299 |  |  |  |  |  |  |  |  |  | 0.876 | 0.562 | 0.462 | 0.175 | 0.223 |  |  |  |  |  |  |
| NCI-H522 | 1.23 | 1.26 | 1.17 | 0.87 | 1.1 | 0.918 | 0.757 | 1.07 | 0.95 |  |  |  |  |  | 0.344 | 0.685 | 0.748 | 0.681 | 0.661 | 1 |
| A549 |  |  |  |  |  |  |  |  |  | 0.503 | 0.606 | 0.434 | 0.284 | 0.307 |  |  |  |  |  |  |
| IA-LM |  |  |  |  |  |  |  |  |  | 0.357 | 0.372 | 0.33 | 0.206 | 0.196 |  |  |  |  |  |  |
| Calu-6 |  |  |  |  |  |  |  |  |  | 0.935 | 0.605 | 0.419 | 0.212 | 0.194 |  |  |  |  |  |  |
